{"source": "patent US9493444B2", "about": "(Merck Patent GmbH, priority 2012, dated 2016)"}
{"tested_on": "Wnt pathway (TCF-dependent transcription in HEK293 luciferase reporter cell line with ER-DSH construct)", "assay": "Cellular assay for Wnt pathway activity (luciferase reporter)", "assay_type": "cell-based", "settings": "Homo sapiens; Wnt pathway inhibition, HEK293 luciferase reporter cells (ER-DSH, TCF promoter), 24 hours incubation, estrogen-induced", "in_short": "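Compounds (30 μM down to 1 nM) were incubated 24 h on cells induced for TCF-dependent transcription with estrogen. Luciferase activity was read by luminescence, normalized to untreated vehicle control, and fitted for IC50.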", "units": {"IC50": "µM"}}
{"smiles": "CC(=O)N(C)CCN(C)c1cncc(Sc2ccc(Br)cc2)n1", "note": "[Compound 130, N-(2-{[6-(4-Bromo-phenyl-sulfanyl)-pyrazin-2-yl]-methyl-amino}-ethyl)-N-methyl-acetamide]", "IC50": "1 to 10"}
{"smiles": "CC(=O)N(C)CCN(C)c1cncc(Oc2ccc(C(=O)c3ccccc3)cc2)n1", "note": "[Compound 147]", "IC50": "0.2 to 1"}
{"smiles": "CC(=O)N(C)CCCc1cncc(Oc2ccc(-c3ccc(C)cn3)cc2)n1", "note": "[Compound 215, N-Methyl-N-(3-{6-[4-(5-methyl-pyridin-2-yl)-phenoxy]-pyrazin-2-yl}-propyl)-acetamide]", "IC50": "0.2 to 1"}
{"smiles": "Cc1ccc(-c2ccc(Oc3cncc(NCCN4CCCCC4=O)n3)cc2)nc1", "note": "[Compound 197, 1-(2-{6-[4-(5-Methyl-pyridin-2-yl)-phenoxy]-pyrazin-2-ylamino}-ethyl)-piperidin-2-one]", "IC50": "< 0.2"}
{"smiles": "CC(=O)N(C)CCNc1cncc(Oc2ccc(-c3ccncc3C#N)cc2)n1", "note": "[Compound 242, N-(2-{6-[4-(3-Cyano-pyridin-4-yl)-phenoxy]-pyrazin-2-ylamino}-ethyl)-N-methyl-acetamide]", "IC50": "1 to 10"}
{"smiles": "O=C1OCCN1CCNc1cncc(Oc2ccc(F)cc2)n1", "note": "[Compound 277, 3-{2-[6-(4-Fluoro-phenoxy)-pyrazin-2-ylamino]-ethyl}-oxazolidin-2-one]", "IC50": "1 to 10"}
{"smiles": "CC(=O)N(C)CCN(C)c1cncc(Oc2ccc(-c3cccnc3)c(F)c2F)n1", "note": "[Compound 279, N-(2-{[6-(2,3-Difluoro-4-pyridin-3-yl-phenoxy)-pyrazin-2-yl]-methyl-amino}-ethyl)-N-methyl-acetamide]", "IC50": "< 0.2"}
{"smiles": "C=CC(=O)N(C)CCN(C)c1cncc(Oc2ccc(F)cc2)n1", "note": "[Compound 290, N-(2-{[6-(4-Fluoro-phenoxy)-pyrazin-2-yl]-methyl-amino}-ethyl)-N-methyl-acrylamide]", "IC50": "1 to 10"}
{"smiles": "Nc1cnc(-c2ccc(Oc3cncc(CCCN4CCCCC4=O)n3)cc2)cn1", "note": "[Compound 263, 1-(3-{6-[4-(5-Amino-pyrazin-2-yl)-phenoxy]-pyrazin-2-yl}-propyl)-piperidin-2-one]", "IC50": "< 0.2"}
{"smiles": "CC(=O)N(C)CCN(C)c1cncc(Sc2ccc(F)cc2)n1", "note": "[Compound 129, N-(2-{[6-(4-Fluoro-phenyl-sulfanyl)-pyrazin-2-yl]-methyl-amino}-ethyl)-N-methyl-acetamide]", "IC50": "0.2 to 1"}
{"smiles": "CSc1cccc(Oc2cncc(N(C)CCN(C)C(C)=O)n2)c1", "note": "[Compound 50, N-Methyl-N-(2-{methyl-[6-(3-methyl-sulfanyl-phenoxy)-pyrazin-2-yl]-amino}-ethyl)-acetamide]", "IC50": "0.2 to 1"}
{"smiles": "CC(=O)N(C)CCN(C)c1cncc(Oc2ccc(-c3ccc(C)nc3)cc2)n1", "note": "[Compound 183, N-Methyl-N-[2-(methyl-{6-[4-(6-methyl-pyridin-3-yl)-phenoxy]-pyrazin-2-yl}-amino)-ethyl]-acetamide]", "IC50": "< 0.2"}
{"smiles": "CC(=O)N(C)CCN(C)c1cncc(Oc2ccc(Cc3ncc(C(F)(F)F)cc3Cl)cc2)n1", "note": "[Compound 159, N-[2-({6-[4-(3-Chloro-5-trifluoro-methyl-pyridin-2-ylmethyl)-phenoxy]-pyrazin-2-yl}-methyl-amino)-ethyl]-N-methyl-acetamide]", "IC50": "0.2 to 1"}
{"smiles": "CCOC(=O)C(C)c1ccc(Oc2cncc(N(C)CCN(C)C(C)=O)n2)cc1", "note": "(stereo not drawn) [Compound 138, 2-[4-(6-{[2-(Acetyl-methyl-amino)-ethyl]-methyl-amino}-pyrazin-2-yloxy)-phenyl]-propionic acid ethyl ester]", "IC50": "0.2 to 1"}
{"smiles": "CC(=O)N(C)CCN(C)c1cncc(Oc2ccc(O)cc2)n1", "note": "[Compound 56, N-(2-{[6-(4-Hydroxy-phenoxy)-pyrazin-2-yl]-methyl-amino}-ethyl)-N-methyl-acetamide]", "IC50": "0.2 to 1"}
{"smiles": "CC(=O)N(C)CCN(C)c1cncc(Oc2cccc(N(C)C)c2)n1", "note": "[Compound 114, N-(2-{[6-(3-Dimethyl-amino-phenoxy)-pyrazin-2-yl]-methyl-amino}-ethyl)-N-methyl-acetamide]", "IC50": "1 to 10"}
{"smiles": "CC(=O)N(C)CCN(C)c1cncc(Oc2ccc(-c3cnc(N)cn3)cc2)n1", "note": "[Compound 185, N-[2-({6-[4-(5-Amino-pyrazin-2-yl)-phenoxy]-pyrazin-2-yl}-methyl-amino)-ethyl]-N-methyl-acetamide]", "IC50": "< 0.2"}
{"smiles": "CN(CCN(C)c1cncc(Oc2ccc(F)cc2)n1)C(=O)CN", "note": "[Compound 284, 2-Amino-N-(2-{[6-(4-fluoro-phenoxy)-pyrazin-2-yl]-methyl-amino}-ethyl)-N-methyl-acetamide]", "IC50": "1 to 10"}
{"smiles": "CC(=O)OCc1ccc(Oc2cncc(N(C)CCN(C)C(C)=O)n2)cc1", "note": "[Compound 176, Acetic acid 4-(6-{[2-(acetyl-methyl-amino)-ethyl]-methyl-amino}-pyrazin-2-yloxy)-benzyl ester]", "IC50": "< 0.2"}
{"smiles": "CC(=O)N(C)CCN(C)c1cncc(Oc2ccc(-c3ccc(N4CCOCC4)nc3)cc2)n1", "note": "[Compound 175, N-Methyl-N-[2-(methyl-{6-[4-(6-morpholin-4-yl-pyridin-3-yl)-phenoxy]-pyrazin-2-yl}-amino)-ethyl]-acetamide]", "IC50": "< 0.2"}
{"smiles": "CC(=O)N(C)CCN(C)c1cncc(Oc2ccc(-c3cccc(C#N)n3)cc2)n1", "note": "[Compound 200, N-[2-({6-[4-(6-Cyano-pyridin-2-yl)-phenoxy]-pyrazin-2-yl}-methyl-amino)-ethyl]-N-methyl-acetamide]", "IC50": "< 0.2"}
{"smiles": "CC(=O)N(C)CCN(C)c1cncc(Oc2ccc(-c3cccc(N4CCN(C)CC4)n3)cc2F)n1", "note": "[Compound 253, N-{2-[(6-{2-Fluoro-4-[6-(4-methyl-piperazin-1-yl)-pyridin-2-yl]-phenoxy}-pyrazin-2-yl)-methyl-amino]-ethyl}-N-methyl-acetamide]", "IC50": "< 0.2"}
{"smiles": "CC(=O)N(C)CCN(C)c1cncc(Oc2ccc(C3CCC(=O)CC3)cc2)n1", "note": "[Compound 178, N-Methyl-N-[2-(methyl-{6-[4-(4-oxo-cyclohexyl)-phenoxy]-pyrazin-2-yl}-amino)-ethyl]-acetamide]", "IC50": "< 0.2"}
{"smiles": "CC(=O)N(C)CCNc1cncc(Oc2ccc(-c3ccc(F)cn3)cc2)n1", "note": "[Compound 262, N-(2-{6-[4-(5-Fluoro-pyridin-2-yl)-phenoxy]-pyrazin-2-ylamino}-ethyl)-N-methyl-acetamide]", "IC50": "1 to 10"}
{"smiles": "CC(=O)N(C)CCN(C)c1cncc(Oc2ccccc2F)n1", "note": "[Compound 51, N-(2-{[6-(2-Fluoro-phenoxy)-pyrazin-2-yl]-methyl-amino}-ethyl)-N-methyl-acetamide]", "IC50": "0.2 to 1"}
{"smiles": "O=C1CCCCN1CCNc1cncc(Oc2ccc(-c3ccc(CO)nc3)cc2)n1", "note": "[Compound 292, 1-(2-{6-[4-(6-Hydroxy-methyl-pyridin-3-yl)-phenoxy]-pyrazin-2-ylamino}-ethyl)-piperidin-2-one]", "IC50": "< 0.2"}
{"smiles": "CC(=O)Nc1cccc(-c2ccc(Oc3cncc(NCCN(C)C(C)=O)n3)cc2)n1", "note": "[Compound 235, N-(2-{6-[4-(6-Acetylamino-pyridin-2-yl)-phenoxy]-pyrazin-2-ylamino}-ethyl)-N-methyl-acetamide]", "IC50": "0.2 to 1"}
{"smiles": "CCC1Sc2ccccc2NC1c1ccc(Oc2cncc(N(C)CCN(C)C(C)=O)n2)cc1", "note": "(stereo not drawn) [Compound 135, N-[2-({6-[4-(2-Ethyl-3,4-dihydro-2H-benzo[1,4]thiazin-3-yl)-phenoxy]-pyrazin-2-yl}-methyl-amino)-ethyl]-N-methyl-acetamide]", "IC50": "1 to 10"}
{"smiles": "CC(=O)Nc1ccc(-c2ccc(Oc3cncc(N(C)CCN(C)C(C)=O)n3)c(F)c2)nc1", "note": "[Compound 230, N-{6-[4-(6-{[2-(Acetyl-methyl-amino)-ethyl]-methyl-amino}-pyrazin-2-yloxy)-3-fluoro-phenyl]-pyridin-3-yl}-acetamide]", "IC50": "< 0.2"}
{"smiles": "COc1ccc(-c2ccc(Oc3cncc(N(C)CCN(C)C(C)=O)n3)c(F)c2)nc1", "note": "[Compound 227, N-[2-({6-[2-Fluoro-4-(5-methoxy-pyridin-2-yl)-phenoxy]-pyrazin-2-yl}-methyl-amino)-ethyl]-N-methyl-acetamide]", "IC50": "< 0.2"}
{"smiles": "CC(=O)N(C)CCCc1cncc(Oc2ccc(-c3ccc(F)cn3)cc2)n1", "note": "[Compound 220, N-(3-{6-[4-(5-Fluoro-pyridin-2-yl)-phenoxy]-pyrazin-2-yl}-propyl)-N-methyl-acetamide]", "IC50": "1 to 10"}
{"smiles": "CCC(C)(C)c1ccc(Oc2cncc(N(C)CCN(C)C(C)=O)n2)cc1", "note": "[Compound 139, N-[2-({6-[4-(1,1-Dimethyl-propyl)-phenoxy]-pyrazin-2-yl}-methyl-amino)-ethyl]-N-methyl-acetamide]", "IC50": "0.2 to 1"}
{"smiles": "CSc1ccc(Oc2cncc(N(C)CCN(C)C(C)=O)n2)cc1", "note": "[Compound 65, N-Methyl-N-(2-{methyl-[6-(4-methyl-sulfanyl-phenoxy)-pyrazin-2-yl]-amino}-ethyl)-acetamide]", "IC50": "< 0.2"}
{"smiles": "CC(=O)N(C)CCN(C)c1cncc(Oc2ccc(N3CCCCC3=O)cc2)n1", "note": "[Compound 86, N-Methyl-N-[2-(methyl-{6-[4-(2-oxo-piperidin-1-yl)-phenoxy]-pyrazin-2-yl}-amino)-ethyl]-acetamide]", "IC50": "0.2 to 1"}
{"smiles": "CC(=O)N(C)CCNc1cncc(Cc2ccc(F)cc2)n1", "note": "[Compound 322, N-{2-[6-(4-Fluoro-benzyl)-pyrazin-2-ylamino]-ethyl}-N-methyl-acetamide]", "IC50": "1 to 10"}
{"smiles": "COC(=O)N(C)CCN(C)c1cncc(Oc2ccc(OC)cc2)n1", "note": "[Compound 78, (2-{[6-(4-Methoxy-phenoxy)-pyrazin-2-yl]-methyl-amino}-ethyl)-methyl-carbamic acid methyl ester]", "IC50": "1 to 10"}
{"smiles": "COc1ccc(Oc2cncc(N(C)CCN(C)C(=O)Cc3sccc3Cl)n2)cc1", "note": "[Compound 53, 2-(3-Chloro-thiophen-2-yl)-N-(2-{[6-(4-methoxy-phenoxy)-pyrazin-2-yl]-methyl-amino}-ethyl)-N-methyl-acetamide]", "IC50": "1 to 10"}
{"smiles": "CC(=O)N(C)CCN(C)c1cncc(Oc2ccc(-c3noc(C)n3)cc2)n1", "note": "[Compound 146, N-Methyl-N-[2-(methyl-{6-[4-(5-methyl-[1,2,4]oxadiazol-3-yl)-phenoxy]-pyrazin-2-yl}-amino)-ethyl]-acetamide]", "IC50": "0.2 to 1"}
{"smiles": "CCN(CCN(CC)c1cncc(Oc2ccc(F)cc2)n1)C(C)=O", "note": "[Compound 102, N-Ethyl-N-(2-{ethyl-[6-(4-fluoro-phenoxy)-pyrazin-2-yl]-amino}-ethyl)-acetamide]", "IC50": "0.2 to 1"}
